Test results published in the NIST ThermoML archive (doi:10.1016/j.jct.2006.05.006).

Assay: xn = mol fraction of the nth substance listed
Conditions: 101 kPa, Liquid

CN1CCCC1=O [N-methylpyrrolidone] + c1ccccc1
Conditions	mass density [kg/m3]
293.15 K, x2 = 0	1032.66
293.15 K, x2 = 0.0434	1027.48
293.15 K, x2 = 0.1023	1020.3
293.15 K, x2 = 0.1625	1012.78
293.15 K, x2 = 0.2237	1004.93
293.15 K, x2 = 0.2834	997.06
293.15 K, x2 = 0.3457	988.6
293.15 K, x2 = 0.4015	980.8
293.15 K, x2 = 0.4865	968.47
293.15 K, x2 = 0.5421	960.08
293.15 K, x2 = 0.6154	948.61
293.15 K, x2 = 0.6854	937.17
293.15 K, x2 = 0.7549	925.31
293.15 K, x2 = 0.8254	912.73
293.15 K, x2 = 0.9002	898.74
293.15 K, x2 = 0.9772	883.6
303.15 K, x2 = 0	1023.42
303.15 K, x2 = 0.0444	1018.04
303.15 K, x2 = 0.1165	1009.11
303.15 K, x2 = 0.1854	1000.32
303.15 K, x2 = 0.2539	991.32
303.15 K, x2 = 0.3296	981.02
303.15 K, x2 = 0.3965	971.6
303.15 K, x2 = 0.4653	961.58
303.15 K, x2 = 0.5362	950.85
303.15 K, x2 = 0.6033	940.29
303.15 K, x2 = 0.6798	927.73
303.15 K, x2 = 0.7451	916.54
303.15 K, x2 = 0.8125	904.52
303.15 K, x2 = 0.8847	891.05
303.15 K, x2 = 0.9245	883.36
303.15 K, x2 = 0.9799	872.31
313.15 K, x2 = 0	1014.27
313.15 K, x2 = 0.0454	1008.7
313.15 K, x2 = 0.1054	1001.17
313.15 K, x2 = 0.1765	992
313.15 K, x2 = 0.2365	984.05
313.15 K, x2 = 0.2965	975.88
313.15 K, x2 = 0.3654	966.2
313.15 K, x2 = 0.4368	955.82
313.15 K, x2 = 0.5012	946.12
313.15 K, x2 = 0.5687	935.58
313.15 K, x2 = 0.6358	924.71
313.15 K, x2 = 0.6954	914.69
313.15 K, x2 = 0.7658	902.39
313.15 K, x2 = 0.8326	890.21
313.15 K, x2 = 0.9036	876.72
313.15 K, x2 = 0.9684	863.87
323.15 K, x2 = 0	1005.62
323.15 K, x2 = 0.0521	999.09
323.15 K, x2 = 0.1245	989.78
323.15 K, x2 = 0.1987	979.96
323.15 K, x2 = 0.2541	972.41
323.15 K, x2 = 0.3214	962.98
323.15 K, x2 = 0.3854	953.74
323.15 K, x2 = 0.4215	948.4
323.15 K, x2 = 0.4854	938.69
323.15 K, x2 = 0.5411	929.98
323.15 K, x2 = 0.6124	918.42
323.15 K, x2 = 0.6854	906.11
323.15 K, x2 = 0.7214	899.84
323.15 K, x2 = 0.7984	885.99
323.15 K, x2 = 0.8598	874.48
323.15 K, x2 = 0.9249	861.81
333.15 K, x2 = 0	996.28
333.15 K, x2 = 0.0451	990.55
333.15 K, x2 = 0.1025	983.11
333.15 K, x2 = 0.1632	975.06
333.15 K, x2 = 0.2302	965.93
333.15 K, x2 = 0.2987	956.32
333.15 K, x2 = 0.3512	948.74
333.15 K, x2 = 0.4215	938.29
333.15 K, x2 = 0.4865	928.31
333.15 K, x2 = 0.5521	917.9
333.15 K, x2 = 0.6213	906.51
333.15 K, x2 = 0.6895	894.85
333.15 K, x2 = 0.7451	885.02
333.15 K, x2 = 0.8145	872.3
333.15 K, x2 = 0.8865	858.55
333.15 K, x2 = 0.9654	842.8
343.15 K, x2 = 0	987.39
343.15 K, x2 = 0.0414	982.03
343.15 K, x2 = 0.1154	972.25
343.15 K, x2 = 0.1874	962.43
343.15 K, x2 = 0.2564	952.76
343.15 K, x2 = 0.3248	942.88
343.15 K, x2 = 0.3965	932.18
343.15 K, x2 = 0.4685	921.08
343.15 K, x2 = 0.5384	909.92
343.15 K, x2 = 0.5968	900.27
343.15 K, x2 = 0.6622	889.13
343.15 K, x2 = 0.7321	876.77
343.15 K, x2 = 0.7954	865.17
343.15 K, x2 = 0.8541	854.04
343.15 K, x2 = 0.9123	842.63
343.15 K, x2 = 0.9799	828.9

CCc1ccccc1 [ethylbenzene] + CN1CCCC1=O
Conditions	mass density [kg/m3]
293.15 K, x1 = 0.0854	1016.73
293.15 K, x1 = 0.1254	1009.4
293.15 K, x1 = 0.1847	998.68
293.15 K, x1 = 0.2475	987.56
293.15 K, x1 = 0.3021	978.07
293.15 K, x1 = 0.3654	967.23
293.15 K, x1 = 0.4251	957.16
293.15 K, x1 = 0.4985	944.94
293.15 K, x1 = 0.5471	936.92
293.15 K, x1 = 0.6012	928.06
293.15 K, x1 = 0.6621	918.17
293.15 K, x1 = 0.7214	908.66
293.15 K, x1 = 0.7954	897.01
293.15 K, x1 = 0.8451	889.37
293.15 K, x1 = 0.9214	878.1
293.15 K, x1 = 1	867.28
303.15 K, x1 = 0.0458	1014.88
303.15 K, x1 = 0.1012	1004.66
303.15 K, x1 = 0.1685	992.46
303.15 K, x1 = 0.2314	981.29
303.15 K, x1 = 0.2958	970.09
303.15 K, x1 = 0.3541	960.11
303.15 K, x1 = 0.4217	948.71
303.15 K, x1 = 0.4851	938.16
303.15 K, x1 = 0.5471	927.94
303.15 K, x1 = 0.6012	919.09
303.15 K, x1 = 0.6874	905.16
303.15 K, x1 = 0.7451	895.97
303.15 K, x1 = 0.8124	885.46
303.15 K, x1 = 0.8954	872.96
303.15 K, x1 = 0.9654	863.01
303.15 K, x1 = 1	858.36
313.15 K, x1 = 0.0547	1004.11
313.15 K, x1 = 0.1245	991.32
313.15 K, x1 = 0.1874	980.01
313.15 K, x1 = 0.2451	969.83
313.15 K, x1 = 0.3012	960.1
313.15 K, x1 = 0.3621	949.71
313.15 K, x1 = 0.4321	937.95
313.15 K, x1 = 0.4985	926.93
313.15 K, x1 = 0.5621	916.47
313.15 K, x1 = 0.6251	906.2
313.15 K, x1 = 0.6958	894.8
313.15 K, x1 = 0.7589	884.77
313.15 K, x1 = 0.8245	874.57
313.15 K, x1 = 0.9014	863.06
313.15 K, x1 = 0.9789	852.18
313.15 K, x1 = 1	849.38
323.15 K, x1 = 0.0654	993.44
323.15 K, x1 = 0.1123	984.81
323.15 K, x1 = 0.1785	972.82
323.15 K, x1 = 0.2356	962.68
323.15 K, x1 = 0.2959	952.18
323.15 K, x1 = 0.3575	941.62
323.15 K, x1 = 0.4154	931.85
323.15 K, x1 = 0.4825	920.66
323.15 K, x1 = 0.5415	910.92
323.15 K, x1 = 0.606	900.36
323.15 K, x1 = 0.6784	888.62
323.15 K, x1 = 0.7451	877.94
323.15 K, x1 = 0.8214	866
323.15 K, x1 = 0.8954	854.87
323.15 K, x1 = 0.9548	846.41
323.15 K, x1 = 1	840.35
333.15 K, x1 = 0.0687	983.52
333.15 K, x1 = 0.1254	973.12
333.15 K, x1 = 0.1874	961.93
333.15 K, x1 = 0.2454	951.67
333.15 K, x1 = 0.3021	941.83
333.15 K, x1 = 0.3654	931.02
333.15 K, x1 = 0.4251	920.99
333.15 K, x1 = 0.4784	912.12
333.15 K, x1 = 0.5241	904.57
333.15 K, x1 = 0.5864	894.36
333.15 K, x1 = 0.6478	884.37
333.15 K, x1 = 0.7012	875.76
333.15 K, x1 = 0.7898	861.71
333.15 K, x1 = 0.8457	853.12
333.15 K, x1 = 0.9254	841.39
333.15 K, x1 = 1	831.25
343.15 K, x1 = 0.0784	972.86
343.15 K, x1 = 0.1354	962.43
343.15 K, x1 = 0.1985	951.09
343.15 K, x1 = 0.2415	943.48
343.15 K, x1 = 0.3021	932.94
343.15 K, x1 = 0.3654	922.12
343.15 K, x1 = 0.4251	912.06
343.15 K, x1 = 0.4984	899.86
343.15 K, x1 = 0.5641	889.03
343.15 K, x1 = 0.6214	879.66
343.15 K, x1 = 0.6985	867.19
343.15 K, x1 = 0.7515	858.72
343.15 K, x1 = 0.8125	849.17
343.15 K, x1 = 0.8895	837.51
343.15 K, x1 = 0.9784	824.96
343.15 K, x1 = 1	822.11
353.15 K, x1 = 0.0874	962.38
353.15 K, x1 = 0.1421	952.35
353.15 K, x1 = 0.2032	941.34
353.15 K, x1 = 0.2874	926.52
353.15 K, x1 = 0.3451	916.58
353.15 K, x1 = 0.4021	906.9
353.15 K, x1 = 0.487	892.69
353.15 K, x1 = 0.5474	882.68
353.15 K, x1 = 0.612	872.06
353.15 K, x1 = 0.6874	859.79
353.15 K, x1 = 0.7458	850.42
353.15 K, x1 = 0.8211	838.6
353.15 K, x1 = 0.8954	827.4
353.15 K, x1 = 0.9445	820.37
353.15 K, x1 = 0.98	815.52
353.15 K, x1 = 1	812.9
